Measurements taken from patent US4024224A, “14-Aminodaunomycins, their preparation and use” (priority 1974, dated 1977).
Converted amounts (≈) assume the structure as drawn. Where two headings read alike, the source gives them in different places.

Experiments:
[1] = test system: Moloney Sarcoma Virus (MSV); assay: Inhibition of MSV-M foci formation in mouse embryo fibroblasts; assay type: cell-based; details: Fibroblast, 120 h; for IC50: read-out: MSV-M foci ID 50 (Inhibiting Dose 50%); for activity at 0.1 µg/mL: dose 0.1 μg/ml; for activity at 0.4 µg/mL: dose 0.4 μg/ml
Procedure: (§1) Mouse embryo fibroblasts (MEF) were plated on 35 mm. Falcon plastic dishes and infected 24 hours later with Moloney Sarcoma Virus (MSV) in the presence of DEAE-dextran (25 μg./ml.). The samples were then treated for 3 days with different concentrations of the compounds of the invention. The number of foci of transformed cells was microscopically determined 5 days after the infection. Uninfected MEF were similarly treated and at the end of the experiment, the cells were counted in an haemocytometer. In all the experiments, the cells were incubated in a 5% CO2 incubator at 37° C.
(§2) For use in these tests the compounds were dissolved in distilled water or in 5% ethyl alcohol in distilled water and then diluted in culture medium.
The results of these tests are reported in Table I in terms of ID50 values (Inhibiting Dose 50%), calculated on dose-effects lines.

[2] = Antitumor activity and toxicity on ascites Sarcoma 180 in CD 1 mice; assay type: in vivo; details: mouse, in vivo, ip, read-out: % Toxic Deaths
Procedure: (§3) The antitumor activity of the compounds of the invention was tested on ascites Sarcoma 180.
(§4) Three month old CD 1 mice were used. Sarcoma 180 ascites cells were inoculated intraperitoneally (10^6 cells/mouse). For use in these tests, the compounds were dissolved in distilled water or in 5% ethyl alcohol in distilled water, then diluted with Ringers solution and administered i.p. 1 day after the tumor implant (10 ml./kg. of body weight).
(§5) The toxicity of the test compounds was evaluated by macroscopic autoptic examination mainly in terms of reduction in spleen size. The comparison of the effectiveness of the test compounds is based on the maximum increase in median survival time, as compared to untreated controls, over the dose range used. The number of Long Term Survivors (LTS) refers to tumor-free mice at the end of the experiment (60 days). Solid Sarcoma 180 was implanted subcutaneously by trocar in the flank of CD 1 mice according to standard methods. The mice were treated i.v. for 5 consecutive days, starting 1 day after the tumor implant. On the 11th day the tumor volume was measured by means of a caliper and evaluated according to the formula (a^2 × b)/2, a and b being the minimum and the maximum diameters respectively.

ascites Sarcoma 180 = assay: as above; assay type: in vivo; details: for % LTS: 60 days; for LTS (Long Term Survivors after 60 days): survivors/total; for Toxic Deaths: deaths/total
Procedure: as §3, §4, §5

Mouse Embryo Fibroblasts = assay: Proliferation of uninfected mouse embryo fibroblasts (MEF); assay type: cell-based; details: Mus musculus, Fibroblast, 72 h, read-out: MEF No. of cells; for activity at 0.1 µg/mL: dose 0.1 μg/ml; for activity at 0.4 µg/mL: dose 0.4 μg/ml
Procedure: as §1, §2

[3] = as above; assay type: cell-based; details: mouse, mouse embryo fibroblasts
Procedure: as §1, §2

[4] = 0.2 mg./kg. i.p. 1 day after tumor implant
[5] = 1 mg./kg. i.p. 1 day after tumor implant
[6] = 5 mg./kg. i.p. 1 day after tumor implant
[7] = calculated on dose-effects lines, 3 days treatment
[8] = dose 0.0062 μg/ml, 3 days treatment, foci counted 5 days after infection, read-out: MSV-M No. of foci
[9] = dose 0.0250 μg/ml, 3 days treatment, foci counted 5 days after infection, read-out: MSV-M No. of foci
[10] = 3 days treatment, foci counted 5 days after infection, read-out: MSV-M No. of foci
[11] = 12.5 mg./kg. i.p. 1 day after tumor implant
[12] = 25 mg./kg. i.p. 1 day after tumor implant
[13] = 50 mg./kg. i.p. 1 day after tumor implant
[14] = dose 0.0062 μg/ml, uninfected MEF, 3 days treatment
[15] = dose 0.0250 μg/ml, uninfected MEF, 3 days treatment
[16] = uninfected MEF, 3 days treatment
[17] = calculated on dose-effects lines, uninfected MEF, 3 days treatment, read-out: MEF proliferation ID 50 (Inhibiting Dose 50%)

Compound | mortality ([2]; 0.2 mg./kg. i.p.) [%] | mortality ([2]; 1 mg./kg. i.p.) [%] | mortality ([2]; 5 mg./kg. i.p.) [%] | T/C (median survival time, % over untreated controls) (ascites Sarcoma 180; [4]) [%] | % LTS (ascites Sarcoma 180; [4]) [%] | LTS (Long Term Survivors after 60 days) (ascites Sarcoma 180; [4]) | Toxic Deaths (ascites Sarcoma 180; 0.2 mg./kg. i.p.) | T/C (median survival time, % over untreated controls) (ascites Sarcoma 180; [5]) [%] | % LTS (ascites Sarcoma 180; [5]) [%] | LTS (Long Term Survivors after 60 days) (ascites Sarcoma 180; [5]) | Toxic Deaths (ascites Sarcoma 180; 1 mg./kg. i.p.) | T/C (median survival time, % over untreated controls) (ascites Sarcoma 180; [6]) [%] | % LTS (ascites Sarcoma 180; [6]) [%] | LTS (Long Term Survivors after 60 days) (ascites Sarcoma 180; [6]) | Toxic Deaths (ascites Sarcoma 180; 5 mg./kg. i.p.) | IC50 [1, 7] [µg/mL] | activity at 0.0062 µg/mL [1, 8] [%] | activity at 0.025 µg/mL [1, 9] [%] | activity at 0.1 µg/mL [1, 10] [%] | activity at 0.4 µg/mL [1, 10] [%] | also measured
COc1cccc2c1C(=O)c1c(O)c3c(c(O)c1C2=O)C[C@@](O)(C(C)=O)C[C@@H]3O[C@H]1C[C@H](N)[C@H](O)[C@H](C)O1 [Daunomycin] | 0 | 0 | 15 | 106 | 5 | 1/20 | 0/20 | 193 | 45 | 9/20 | 0/20 | 173 | 15 | 3/20 | 3/20 |  |  |  |  |  | activity at 0.0062 µg/mL ([1]; read-out: MSV-M No. of foci): 51%; activity at 0.0125 µg/mL ([1]; read-out: MSV-M No. of foci): 17%; activity at 0.025 µg/mL ([1]; read-out: MSV-M No. of foci): 0%; IC50 [1]: 0.006 µg/mL (≈ 0.0114 µM); activity at 0.0062 µg/mL (Mouse Embryo Fibroblasts): 55%; activity at 0.0125 µg/mL (Mouse Embryo Fibroblasts): 45%; activity at 0.025 µg/mL (Mouse Embryo Fibroblasts): 22%; IC50 at 72 h [3]: 0.0086 µg/mL (≈ 0.0163 µM)
COc1cccc2c1C(=O)c1c(O)c3c(c(O)c1C2=O)C[C@@](O)(C(=O)CN1CCN(C)CC1)C[C@@H]3O[C@H]1C[C@H](N)[C@H](O)[C@H](C)O1 [14-[N-(N'-methyl)-piperazino]-daunomycin] | 0 | 0 | 0 | 119 | 0 | 0/10 | 0/10 | 103 | 0 | 0/10 | 0/10 | 116 | 0 | 0/10 | 0/10 | 0.011 (≈ 0.0176 µM) | 60 | 35 | 19 | 0 | mortality ([2]; 12.5 mg./kg. i.p.): 10%; mortality ([2]; 25 mg./kg. i.p.): 0%; mortality ([2]; 50 mg./kg. i.p.): 50%; T/C (median survival time, % over untreated controls) (ascites Sarcoma 180; [11]): 167%; % LTS (ascites Sarcoma 180; [11]): 30%; LTS (Long Term Survivors after 60 days) (ascites Sarcoma 180; [11]): 3/10; Toxic Deaths (ascites Sarcoma 180; 12.5 mg./kg. i.p.): 1/10; T/C (median survival time, % over untreated controls) (ascites Sarcoma 180; [12]): 226%; % LTS (ascites Sarcoma 180; [12]): 30%; LTS (Long Term Survivors after 60 days) (ascites Sarcoma 180; [12]): 3/10; Toxic Deaths (ascites Sarcoma 180; 25 mg./kg. i.p.): 0/10; T/C (median survival time, % over untreated controls) (ascites Sarcoma 180; [13]): 130%; % LTS (ascites Sarcoma 180; [13]): 10%; LTS (Long Term Survivors after 60 days) (ascites Sarcoma 180; [13]): 1/10; Toxic Deaths (ascites Sarcoma 180; 50 mg./kg. i.p.): 5/10; activity at 0.0062 µg/mL (Mouse Embryo Fibroblasts; [14]): 67%; activity at 0.025 µg/mL (Mouse Embryo Fibroblasts; [15]): 64%; activity at 0.1 µg/mL (Mouse Embryo Fibroblasts; [16]): 56%; activity at 0.4 µg/mL (Mouse Embryo Fibroblasts; [16]): 23%; IC50 at 72 h [3, 17]: 0.09 µg/mL (≈ 0.144 µM)
COc1cccc2c1C(=O)c1c(O)c3c(c(O)c1C2=O)C[C@@](O)(C(=O)CN1CCN(CCO)CC1)C[C@@H]3O[C@H]1C[C@H](N)[C@H](O)[C@H](C)O1 [14-[N-(N'-hydroxyethyl)piperazino]-daunomycin] | 0 | 0 | 0 | 103 | 0 | 0/10 | 0/10 | 103 | 0 | 0/10 | 0/10 | 103 | 10 | 1/10 | 0/10 | 0.045 (≈ 0.0686 µM) | 71 | 64 | 43 | 2 | mortality ([2]; 12.5 mg./kg. i.p.): 0%; mortality ([2]; 25 mg./kg. i.p.): 0%; mortality ([2]; 50 mg./kg. i.p.): 30%; T/C (median survival time, % over untreated controls) (ascites Sarcoma 180; [11]): 152%; % LTS (ascites Sarcoma 180; [11]): 0%; LTS (Long Term Survivors after 60 days) (ascites Sarcoma 180; [11]): 0/10; Toxic Deaths (ascites Sarcoma 180; 12.5 mg./kg. i.p.): 0/10; T/C (median survival time, % over untreated controls) (ascites Sarcoma 180; [12]): 222%; % LTS (ascites Sarcoma 180; [12]): 10%; LTS (Long Term Survivors after 60 days) (ascites Sarcoma 180; [12]): 1/10; Toxic Deaths (ascites Sarcoma 180; 25 mg./kg. i.p.): 0/10; T/C (median survival time, % over untreated controls) (ascites Sarcoma 180; [13]): 152%; % LTS (ascites Sarcoma 180; [13]): 0%; LTS (Long Term Survivors after 60 days) (ascites Sarcoma 180; [13]): 0/10; Toxic Deaths (ascites Sarcoma 180; 50 mg./kg. i.p.): 3/10; activity at 0.0062 µg/mL (Mouse Embryo Fibroblasts; [14]): 67%; activity at 0.025 µg/mL (Mouse Embryo Fibroblasts; [15]): 64%; activity at 0.1 µg/mL (Mouse Embryo Fibroblasts; [16]): 52%; activity at 0.4 µg/mL (Mouse Embryo Fibroblasts; [16]): 31%; IC50 at 72 h [3, 17]: 0.08 µg/mL (≈ 0.122 µM)
COc1cccc2c1C(=O)c1c(O)c3c(c(O)c1C2=O)C[C@@](O)(C(=O)CN1CCCCC1)C[C@@H]3O[C@H]1C[C@H](N)[C@H](O)[C@H](C)O1 [14-(N-piperidino)-daunomycin] | 0 | 0 | 0 | 103 | 0 | 0/10 | 0/10 | 100 | 0 | 0/10 | 0/10 | 140 | 20 | 2/10 | 0/10 | 0.08 (≈ 0.131 µM) | 100 | 89 | 42 | 0 | mortality ([2]; 12.5 mg./kg. i.p.): 0%; mortality ([2]; 25 mg./kg. i.p.): 0%; mortality ([2]; 50 mg./kg. i.p.): 40%; T/C (median survival time, % over untreated controls) (ascites Sarcoma 180; [11]): 200%; % LTS (ascites Sarcoma 180; [11]): 20%; LTS (Long Term Survivors after 60 days) (ascites Sarcoma 180; [11]): 2/10; Toxic Deaths (ascites Sarcoma 180; 12.5 mg./kg. i.p.): 0/10; T/C (median survival time, % over untreated controls) (ascites Sarcoma 180; [12]): 218%; % LTS (ascites Sarcoma 180; [12]): 20%; LTS (Long Term Survivors after 60 days) (ascites Sarcoma 180; [12]): 2/10; Toxic Deaths (ascites Sarcoma 180; 25 mg./kg. i.p.): 0/10; T/C (median survival time, % over untreated controls) (ascites Sarcoma 180; [13]): 144%; % LTS (ascites Sarcoma 180; [13]): 20%; LTS (Long Term Survivors after 60 days) (ascites Sarcoma 180; [13]): 2/10; Toxic Deaths (ascites Sarcoma 180; 50 mg./kg. i.p.): 4/10; activity at 0.0062 µg/mL (Mouse Embryo Fibroblasts; [14]): 87%; activity at 0.025 µg/mL (Mouse Embryo Fibroblasts; [15]): 71%; activity at 0.1 µg/mL (Mouse Embryo Fibroblasts; [16]): 58%; activity at 0.4 µg/mL (Mouse Embryo Fibroblasts; [16]): 24%; IC50 at 72 h [3, 17]: 0.1 µg/mL (≈ 0.164 µM)
